Each structure is given as a SMILES string. Where a SMILES comes first, the peptide text is derived from it. [ ]: non-standard residue; d: D form. The star is where a group is joined. Piperidin1yl(4-NH2,4-COOH) = NC1(C(=O)O)CCN(*)CC1; N(Indan-2-yl)Gly = O=C(O)CNC1Cc2ccccc2C1; Gly(NCH2CH2Ph) = O=C(O)CNCCc1ccccc1; Morpholide = C1CN(*)CCO1 Some results are limits rather than exact numbers.

The values that follow come from patent US20190144499A1, “PHENYL P[…], AND MANUFACTURING METHOD AND PHARMACEUTICAL APPLICATION THEREOF” (Jiangsu Hengrui Medicine Co., Ltd., priority 2016, published 2019).

The target of data set [1] is T1, human KOR (h-KOR) receptors (Homo sapiens, UniProt P41145).
T1 construct: expressed in transfected cells
Description: h-KOR agonist activity test (cAMP/CRE-luciferase reporter in HEK293/h-KOR/CRE cells). The note with it: Forskolin, 4 hours, luciferase chemiluminescence, read-out: EC50 on agonizing h-KOR receptor and affecting cAMP levels. The class given is cell-based. From the text:
The objective of this experiment is to determine the agonistic effect of the compounds of the present invention on human KOR (h-KOR) receptors, and to evaluate the in vitro activity of the compounds according to the values of EC50.
The compounds of the present invention can activate h-KOR receptor, thereby reducing intracellular cAMP levels. The second messenger cAMP enters the nucleus and binds to the CRE of the DNA, thereby initiating the expression of the downstream luciferase. Luciferase reacts with its substrate to emit fluorescence, and the measured fluorescence signals reflect the agonistic activity of the compounds.
The activity of the test example compounds on agonizing h-KOR and affecting downstream cAMP levels was tested by the following method.
KOR/pcDNA3.1 (+) and CRE/pGL4.29 were transferred into HEK293 cells. G418 and hygromycin were added into the culture medium, and HEK293/KOR/CRE monoclonal cell lines were screened in a 96-well cell culture plate.
HEK293/h-KOR/CRE monoclonal cells were cultured in a DMEM/high glucose medium (10% FBS, 1 mg/ml G418, 200 μg/ml hygromycin, mixed uniformly), and passaged every 3 days. On the day of the experiment, a cell suspension was prepared with a fresh cell medium, added to a 96 well plate (BD, #356692) with 20,000 cells/well, and incubated in 5% CO2 at 37° C. On the second day, the compound was dissolved in pure DMSO at a concentration of 20 mM, then formulated with DMSO to a first concentration of 200 nM and diluted in 3 fold concentration gradient to 8 concentrations. 90 μl of DMSO were added to blank and control wells. The compound solution was diluted 20-fold with DMEM/hyperglucose (SH30243.01B, Hyclone) medium containing […]. The cell culture plates inoculated on the first day were taken out, and 10 μl of the diluted drug or the control (0.5% DMSO) was added to each well. The plate was gently shaken, and placed at 37° C. for 4 hours. In a 96-well cell culture plate, 100 μl of luciferase assay solution (Promega, # E6110) was added to each well. The plate was placed for 5 minutes at room temperature. The chemiluminescence value was measured using Victor 3.0. The EC50 values of the compounds were calculated using Graphpad Prism software based on each concentration of the compound and the corresponding signal value.
The activity of the compounds of the present invention on agonizing h-KOR and affecting downstream cAMP levels was determined by the above test, and the EC50 values are shown in Table 1.1.
A general note: A reporter such as luciferase makes a cellular process visible.

Data set [2] can be described thus: Pharmacokinetics assay in rats after intravenous administration. The note with it: both sexes, Sprague-Dawley, rat, plasma, SD rats, 1 mg/kg; for Vd: read-out: Apparent Distribution Volume Vz; for AUC: read-out: Area Under Curve AUC; for clearance: read-out: Clearance CL; for half-life: read-out: Half-Life t1/2 (converted); for MRT: read-out: Mean Residence Time MRT. The class given is in vivo. The procedure: Rats were used as test animals. The drug concentration in plasma at different time points was determined by LC/MS/MS after intravenous administration of the compounds of Examples 2, 5 and 8 to the rats. The pharmacokinetic behavior of the compounds of the present invention was studied and evaluated in SD rats.
12 Sprague-Dawley (SD) rats, half male and half female, were purchased from SINO-BRITISH SIPPR/BK LAB. ANIMAL LTD., CO, with License No.: SOCK (Shanghai) 2008-0016.
The appropriate amount of the test compounds was weighed, and added with 5% 5% DMSO+5% PEG400+90% normal saline successively.
After an overnight fast, 12 SD rats, half male and half female, were divided into 3 groups equally, and administered intravenously at a dose of an administration volume of 5 mL/kg.
In the venous group, blood (0.2 mL) was taken from the orbital sinus before administration and 0.25, 0.5, 1.0, 2.0, 4.0, 8.0, 11.0 and 24.0 hours after administration. The samples were stored in heparinized tubes, and centrifuged for 10 minutes at 3,500 rpm to separate the blood plasma. The plasma samples were stored at −20° C.
The concentration of the test compounds in SD rat plasma after intravenous administration was determined by LC-MS/MS.

T1 sequence (P41145 whole entry): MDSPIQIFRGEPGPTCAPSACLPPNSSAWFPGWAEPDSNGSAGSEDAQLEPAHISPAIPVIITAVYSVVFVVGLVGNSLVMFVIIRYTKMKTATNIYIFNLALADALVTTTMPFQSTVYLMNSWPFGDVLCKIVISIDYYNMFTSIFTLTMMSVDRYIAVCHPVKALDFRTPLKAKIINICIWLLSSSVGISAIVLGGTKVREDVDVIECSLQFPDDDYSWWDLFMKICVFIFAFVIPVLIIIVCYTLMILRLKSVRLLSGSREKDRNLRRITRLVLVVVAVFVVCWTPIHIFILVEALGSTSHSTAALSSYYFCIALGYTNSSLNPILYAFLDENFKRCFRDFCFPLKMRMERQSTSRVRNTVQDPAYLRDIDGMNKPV

The EC50 is the midpoint of the concentration-response curve. Turning to `CC(C)C[C@@H](NC(=O)[C@@H](Cc1ccccc1)NC(=O)CNCC1(c2ccccc2)CC1)C(=O)N[C@H](CCCCN)C(=O)N1CCC(N)(C(=O)O)CC1` [Example 1, 4-amino-1-((6R,9R,12R)-12-(4-aminobutyl)-6-benzyl-9-isobutyl-4,7,10-trioxo-1-(1-phenylcyclopropyl)-2,5,8,11-tetraazatridecan-13-oyl)piperidine-4-carboxylic acid], the concentration giving a half-maximal response (EC50) in data set [1] turned out to be 0.056 nM.

The term AUC denotes concentration integrated over time. A word on the clearance: it is the rate of elimination divided by the concentration. One may read the MRT as a mean duration of stay, worked out from the concentration-time curve. As to `CC(C)C[C@@H](NC(=O)[C@@H](Cc1ccccc1)NC(=O)CNC[C@@H](C)c1ccccc1)C(=O)N[C@H](CCCCN)C(=O)N1CCC(N)(C(=O)O)CC1` [Example 2, 4-amino-1-((2R,5R,8R,14S)-2-(4-aminobutyl)-8-benzyl-5-isobutyl-4,7,10-trioxo-14-phenyl-3,6,9,12-tetraazapentadecan-1-oyl)piperidine-4-carboxylic acid], the EC50 in data set [1] was 0.015 nM. In data set [2], the Vd was determined as 0.28 ± 0.046 L/kg, the AUC was 2560 ± 427 ng·h/mL, the clearance was determined as 6.66 ± 1.28 mL/min/kg and the half-life is 29.3 ± 1.56 min. Besides, the MRT in data set [2] amounted to 31.5 ± 5.94 min.

Consider `CC(C)C[C@@H](NC(=O)[C@@H](Cc1ccccc1)NC(=O)CNCC(C)(C)c1ccccc1)C(=O)N[C@H](CCCCN)C(=O)N1CCC(N)(C(=O)O)CC1` [Example 3, 4-amino-1-((2R,5R,8R)-2-(4-aminobutyl)-8-benzyl-5-isobutyl-14-methyl-4,7,10-trioxo-14-phenyl-3,6,9,12-tetraazapentadecan-1-oyl)piperidine-4-carboxylic Acid], for which the EC50 in data set [1] was 0.004 nM.

In the case of `CC(C)C[C@@H](NC(=O)[C@@H](Cc1ccccc1)NC(=O)CNC[C@@H](c1ccccc1)C(C)C)C(=O)N[C@H](CCCCN)C(=O)N1CCC(N)(C(=O)O)CC1` [Example 4, 4-amino-1-((2R,5R,8R,14R)-2-(4-aminobutyl)-8-benzyl-5-isobutyl-15-methyl-4,7,10-trioxo-14-phenyl-3,6,9,12-tetraazahexadecan-1-oyl)piperidine-4-carboxylic Acid], in data set [1], the EC50 came out at 0.009 nM.

With `CC(C)C[C@@H](NC(=O)[C@@H](Cc1ccccc1)NC(=O)CN[C@H]1C[C@@H]1c1ccccc1)C(=O)N[C@H](CCCCN)C(=O)N1CCOCC1` [Example 6, (R)—N—((R)-6-amino-1-morpholino-1-oxohexan-2-yl)-4-methyl-2-((R)-3-phenyl-2-(2-(((1S,2R)-2-phenylcyclopropyl)amino)acetamido)propanamido)pentanamide], the EC50 in data set [1] came out at 0.079 nM.

Consider `CCC(CNCC(=O)N[C@H](Cc1ccccc1)C(=O)N[C@H](CC(C)C)C(=O)N[C@H](CCCCN)C(=O)N1CCC(N)(C(=O)O)CC1)c1ccccc1` (stereo partly drawn) [Example 7, 4-amino-1-((2R,5R,8R)-2-(4-aminobutyl)-8-benzyl-5-isobutyl-4,7,10-trioxo-14-phenyl-3,6,9,12-tetraazahexadecan-1-oyl)piperidine-4-carboxylic Acid], for which, in data set [1], the EC50 was 0.003 nM.

On to `CC(C)C[C@@H](NC(=O)[C@@H](Cc1ccccc1)NC(=O)CNCCc1ccccc1)C(=O)N[C@H](CCCCN)C(=O)N1CCC(N)(C(=O)O)CC1` [Example 8, 4-amino-1-((2R,5R,8R)-2-(4-aminobutyl)-8-benzyl-5-isobutyl-4,7,10-trioxo-14-phenyl-3,6,9,12-tetraazatetradecan-1-oyl)piperidine-4-carboxylic Acid] (H-[Gly(NCH2CH2Ph)][dF][dL][dK]-{Piperidin1yl(4-NH2,4-COOH)}), for which the EC50 in data set [1] stood at 0.013 nM. Further, in data set [2], the Vd turned out to be 0.499 ± 0.111 L/kg, the AUC turned out to be 1520 ± 436 ng·h/mL, the clearance was found to be 11.6 ± 3.3 mL/min/kg and the half-life is 30.1 ± 2.28 min. Besides, in data set [2], the MRT was determined as 34 ± 6.72 min.

On to `CC(C)C[C@@H](NC(=O)[C@@H](Cc1ccccc1)NC(=O)CNC1Cc2ccccc2C1)C(=O)N[C@H](CCCCN)C(=O)N1CCOCC1` [Example 10, (R)—N—((R)-6-amino-1-morpholino-1-oxohexan-2-yl)-2-((R)-2-(2-((2,3-dihydro-1H-inden-2-yl)amino)acetamido)-3-phenylpropanamido)-4-methylpentanamide] (H-[N(Indan-2-yl)Gly][dF][dL][dK]-Morpholide), for which the EC50 in data set [1] was greater than 1 nM.
